Measurements published in paper PMC6906431, “Selective small molecule PARG inhibitor causes replication fork stalling and cancer cell death” (Nature Communications, 2019).
Several values for one entry are separate records, joined by “and”; a condition that tells them apart may be missing. Equal values may be shown once.

How the values were obtained:
[1] = Sulforhodamine B (SRB) cytotoxicity assay; details: human, A172 glioblastoma cells
Method: (§1) Normalized % viabilities are plotted against log concentration. Error bars show the percent coefficient of variation. […] Mann-Whitney test was used to generate the p-value. The DNA spread assay is the representation of two independently repeated experiments. Source Data are provided as a Source Data file.
(§2) Cells were plated in 96-well plates, treated as designated in reduced 5% FBS and fixed with trichloroacetic acid after 72 h, as previously described by[43]. […] Colorimetric or fluorescence analysis was performed in a FlexStation 3, using SoftMax Pro 7.0, Molecular Devices. Normalized graphs were generated with Prism 8 software, non-linear 4-parameter data fitting was performed for IC50 calculation.

A172 glioblastoma cells = assay: Sulforhodamine B (SRB) cytotoxicity assay; details: Homo sapiens, A 172, 72 h
Method: as §1, §2

[2] = Sulforhodamine B (SRB) cytotoxicity assay; details: human, PC3 cells, Viability; for viability at 72 h, 1.95 µM: log [concentration] μM 0.291; for viability at 72 h, 3.9 µM: log [concentration] μM 0.592; for viability at 72 h, 7.8 µM: log [concentration] μM 0.893; for viability at 72 h, 15.6 µM: log [concentration] μM 1.194; for viability at 72 h, 31.3 µM: log [concentration] μM 1.495; for viability at 72 h, 62.5 µM: log [concentration] μM 1.796; for viability at 72 h, 125 µM: log [concentration] μM 2.097; for viability at 72 h, 250 µM: log [concentration] μM 2.398; for viability at 72 h, 500 µM: log [concentration] μM 2.699; for viability at 72 h, 0.98 µM: log [concentration] μM -0.01; for viability at 72 h, 0.49 µM: log [concentration] μM -0.312; for viability at 72 h, 0.244 µM: log [concentration] μM -0.613
MDA-MB-231 cells = assay: Clonogenic survival assay; type: cell-based, human; details: for colony count (clonogenic survival, raw replicate data, Supplementary Figure 8): MDA-MB-231
Method: (§3) Fig. 6 Selective inhibition of PARG by xanthine derivative JA2131. a Clonogenic survival assays of PC3, MDA-MB-231, and MCF-7 cells treated with PARGi. Cells were treated with either DMSO or 10 µM JA2131 for 2 h, irradiated with 3 Gy (MDA-MB-231 and MCF-7), 7 Gy (PC3) IR and grown for ~2 weeks, then colonies were fixed with methanol and stained with crystal violet. The results of three independent experiments are shown. Error bars = the standard error of the mean (SEM). b dose-response of JA2131 in MDA-MB-231 cells with and without IR. Cells were treated with designated concentrations of JA2131 for 2 h and then either left untreated or exposed to 3 Gy IR and allowed to recover for 1 h before lysis. Total protein was immunoblotted with anti-PAR antibody (upper panel), stripped and reprobed with anti-PCNA as a loading control. c MDA-MB-231 cells with stable scrambled shRNA (WT) or stable PARG shRNA, knockdown (KD), were treated with 5 μM JA2131 for 2 h, lysed and then total lysates were immunoblotted for anti-PAR (upper panel) followed by anti-PARG (upper middle panel), anti-PARP1 (lower middle panel) and anti-actin (bottom panel) antibody. […] Stable cells with scramble shRNA (control) and shPARG (PARG-KD) cells were treated with an increasing concentration of JA2131 for growth inhibitory IC50 determination. The data was normalized against 100% survival at the lowest inhibitor concentration. Error bars show the percent coefficient of variation. Equivalent concentrations of DMSO were used as a negative control. e The cytotoxicity of JA2131 along with PDD, Veliparib and Doxorubicin against MRC-5 cells. Error bars show the percent coefficient of variation. f CETSA for in-cell JA2131 target engagement. Normalized anti-PARG western blot intensities of three independent experiments were fitted as above and the estimated aggregation temperature (Tagg) is shown in the tabulated insert. Source Data are provided as a Source Data file.
(§4) PC3, MDA-MB-231 cells were maintained in RPMI 1640, MCF-7 cells in Eagle’s Minimum Essential Medium (EMEM), MRC-5 cells in Eagle’s Minimum Essential Medium and Hela and U2OS cells in Dulbecco’s modified Eagle’s high glucose medium (DMEM) supplemented with 10% (vol/vol) fetal bovine serum (FBS) and 1% antibiotic/antimycotic (Lonza) in a humidified incubator with 10% CO2. All cell lines were purchased from ATCC and regularly checked for mycoplasma and cell authentication. SUM 149PT cells were cultured in F-12 Hams (Gibco) supplemented with 5% fetal bovine serum, insulin, and hydrocortisone. Colony formation assays were carried out in 6-well plates, 500 cells were used per well and following designated treatment, and colonies were grown for 2 weeks. Cells were fixed with methanol (100%), stained with crystal violet and analyzed using a GelCount instrument (Oxford Optronix Ltd). Crystal Violet C6158 was purchased from Sigma. PARG knockdown cells were generated by infecting MDA-MB-231 cells with shPARG lentiviral particles (sc-106355-V, Santa Cruz Biotechnology), which contain a pool of three shRNA plasmids. After 24 h infection, 3 µg/ml puromycin (Invitrogen) was added and antibiotic-resistant cells were further expanded and used for experimentation. Sequence-1; hairpin sequence: […], sense: […]tt, Antisense: […]tt. Sequence-2; hairpin sequence, […]-[…], sense: […]tt, antisense: […]tt. Sequence-3; hairpin sequence: […]-[…], sense: […]tt, antisense: […]-GGUUUCCtt. Control cells were generated using the same process except that scramble lentiviral particles with scrambled sequences were used (sc-108080).
(§5) Supplementary Fig. 8: Clonogenic survival of cells in the presence of PARGi and PARPi (a)
(§6) Clonogenic survival of PC3 cells in response to indicated compounds. ( b) Clonogenic survival of
(§7) MDA-MB-231 cells in response to i ndicated compounds. (c) Clonogenic survival of MCF -7 cells
(§8) in response to indicated compounds. […]

PC3 cells = assay: Clonogenic survival assay; type: cell-based, human; details: for surviving colonies, Replicates: two weeks
Method: as §3, §4, §5, §6, §7, §8

HeLa cells = assay: DNA fiber assay, replication fork progression; type: cell-based, human; details: JA2131 10 µM
Source text: as §1

[3] = 10 µM JA2131 2 h, 7 Gy IR, ~2 weeks

Compound: Cn1c(=S)c2[nH]c(SCCN3CCOCC3)nc2n(C)c1=O [JA2131]
- viability at 72 h, 0.244 µM [1]: 100%
- viability at 72 h, 0.488 µM [1]: 98.3%
- viability at 72 h, 0.977 µM [1]: 99.4%
- viability at 72 h, 1.95 µM [1]: 101%
- viability at 72 h, 3.91 µM [1]: 104%
- viability at 72 h, 7.82 µM [1]: 96.7%
- viability at 72 h, 15.6 µM [1]: 95.9%
- viability at 72 h, 31.3 µM [1]: 78.7%
- viability at 72 h, 62.5 µM [1]: 53.3%
- viability at 72 h, 125 µM [1]: 16.6%
- viability at 72 h, 250 µM [1]: 14.4%
- viability at 72 h, 500 µM [1]: 13.5%
- IC50 (A172 glioblastoma cells): 55.3 ± 7.9 µM
- viability at 72 h, 1.95 µM ([2]; +IR 7 Gy): 104%
- viability at 72 h, 3.9 µM ([2]; +IR 7 Gy): 99.5%
- viability at 72 h, 7.8 µM ([2]; +IR 7 Gy): 103%
- viability at 72 h, 15.6 µM ([2]; +IR 7 Gy): 96.6%
- viability at 72 h, 31.3 µM ([2]; +IR 7 Gy): 76.7%
- viability at 72 h, 62.5 µM ([2]; +IR 7 Gy): 32.5%
- viability at 72 h, 125 µM ([2]; +IR 7 Gy): 13.6%
- viability at 72 h, 250 µM ([2]; +IR 7 Gy): 16.8%
- viability at 72 h, 500 µM ([2]; +IR 7 Gy): 13%
- viability at 72 h, 0.98 µM ([2]; +IR 7 Gy): 102%
- viability at 72 h, 0.49 µM ([2]; +IR 7 Gy): 100%
- viability at 72 h, 0.244 µM ([2]; +IR 7 Gy): 100%
- viability at 72 h, 1.95 µM ([2]; without IR): 97.5%
- viability at 72 h, 3.9 µM ([2]; without IR): 97.3%
- viability at 72 h, 7.8 µM ([2]; without IR): 94.1%
- viability at 72 h, 15.6 µM ([2]; without IR): 88.1%
- viability at 72 h, 31.3 µM ([2]; without IR): 57.2%
- viability at 72 h, 62.5 µM ([2]; without IR): 6.73%
- viability at 72 h, 125 µM ([2]; without IR): 4.07%
- viability at 72 h, 250 µM ([2]; without IR): 4.3%
- viability at 72 h, 500 µM ([2]; without IR): 4.21%
- viability at 72 h, 0.98 µM ([2]; without IR): 99.2%
- viability at 72 h, 0.49 µM ([2]; without IR): 98.7%
- viability at 72 h, 0.244 µM ([2]; without IR): 100%
- Surviving Fraction (MDA-MB-231 cells; 10 µM JA2131 2 h, 3 Gy IR, ~2 weeks): 0.4526 and 0.3681 and 0.2687 and 0.3631
- colony count (clonogenic survival, raw replicate data, Supplementary Figure 8) (MDA-MB-231 cells; Experiment-1, replicates 1-6): 76 (2×) and 74 and 77 and 70 and 85
- colony count (clonogenic survival, raw replicate data, Supplementary Figure 8) (MDA-MB-231 cells; Experiment-2, replicates 1-6): 61 (3×) and 68 and 76 and 65
- colony count (clonogenic survival, raw replicate data, Supplementary Figure 8) (MDA-MB-231 cells; Experiment-3, replicates 1-6): 34 and 25 and 20 and 47 and 33 and 35
- Surviving Fraction (PC3 cells; [3]): 0.7713 and 0.7545 and 0.8277 and 0.7845
- clonogenic survival (Exp-1 to Exp-4) (PC3 cells; [3]): 77.1344 and 75.4495 and 82.7709 and 78.4516
- surviving colonies, Replicates (PC3 cells; JA2131 0.5 uM): 47 and 58 and 49 and 56 and 83 and 61
- surviving colonies, Replicates (PC3 cells; JA2131 1 uM): 9 and 48 and 34 and 20 and 62 and 2
- surviving colonies, Replicates (PC3 cells; JA2131 5 uM): 1 and 29 and 2 (2×) and 24 and 0
- surviving colonies, Replicates (PC3 cells; JA2131 10 uM): 2 and 15 and 14 and 0 and 21 and 5
- average IdU tract (HeLa cells; 2 h pretreatment, no genotoxic stress): 6.0 μm
- average IdU tract length (HeLa cells; low-dose hydroxyurea): 5.0 μm
